Source: publication PMC9170034 (Proceedings of the National Academy of Sciences of the …, 2022)
Read-outs that look alike come from different tables or passages of the source.

Assays:
KPC-2 = system: KPC-2; parameters: method as in earlier work; conditions: periplasmic extracts; nitrocefin; 5 min pre-incubation; ref 2 (Papp-Wallace et al., 2019); cited from earlier work
SHV-1 = conditions: periplasmic extracts; nitrocefin; 5 min pre-incubation; ref 2 (Papp-Wallace et al., 2019); cited from earlier work
TEM-30 = system: TEM-30; parameters: method as in earlier work; conditions: periplasmic extracts; nitrocefin; 5 min pre-incubation; ref 2 (Papp-Wallace et al., 2019); cited from earlier work
OXA-10 [1] = target: T1, OXA-10 (Pseudomonas aeruginosa, UniProt P14489); assay: Kiapp and kinact/K determination in competition with FC-5; type: biochemical; conditions: OXA-10 (50 nM), FC-5 (5 µM); pH 7.5; 10 mM NaHCO3; read-out: Kiapp, OXA-10
T1 construct: His tag (N); made in house
Description: Kinetic analyses were performed (at least in triplicate) using either BMG LABTECH PHERAstar or CLARIOstar plate readers. Unless stated otherwise, reactions were in 50 mM phosphate buffer, pH 7.5, containing 0.01% (vol/vol) aqueous Triton X-100, and, in the case of OXA-10, 10 mM sodium bicarbonate. Assays were performed in competition with either the fluorescent reporter substrate FC-5 ([35]), using black-walled microplates (Greiner Bio-One μCLEAR, PS, F-bottom, black), and measuring fluorescence intensity (ʎex = 380 nm and ʎem = 460 nm), or with nitrocefin (NCF), using ultraviolet transparent plates (Greiner Bio-One UV-Star, COC, F-bottom, clear) and measuring absorbance (ʎAbs = 486 nm, using path-length correction). Nonlinear regression analysis was performed with Prism 5 (GraphPad Software).
IC50s were determined as reported ([35]). TEM-116 (1 nM), AmpCEC (500 pM), or OXA-10 (250 pM) were incubated with varied inhibitor concentrations at room temperature (r.t.) for the indicated time then assayed using 5 µM FC-5. The apparent inhibitory constant Kiapp and the second-order rate constant kinact/K (or k2/K) were determined using reported methods ([60]). SBLs were reacted with the reporter substrate in the presence of varied inhibitor concentrations. Reactions were initiated by SBL addition and immediately monitored for 60 to 120 s (until they plateaued). […]

AmpC E. cloacae = system: AmpC E. cloacae; parameters: method as in earlier work; conditions: periplasmic extracts; nitrocefin; 5 min pre-incubation; ref 2 (Papp-Wallace et al., 2019); cited from earlier work
OXA-51 = system: OXA-51; parameters: method as in earlier work; conditions: periplasmic extracts; nitrocefin; 5 min pre-incubation; ref 2 (Papp-Wallace et al., 2019); cited from earlier work
OXA-48 = system: OXA-48; parameters: method as in earlier work; conditions: periplasmic extracts; nitrocefin; 5 min pre-incubation; ref 2 (Papp-Wallace et al., 2019); cited from earlier work
TEM-26 = system: TEM-26; parameters: method as in earlier work; conditions: periplasmic extracts; nitrocefin; 5 min pre-incubation; ref 2 (Papp-Wallace et al., 2019); cited from earlier work
OXA-10 [2] = target: T1, OXA-10; assay: IC50/pIC50 determination with fluorescent reporter substrate FC-5 after pre-incubation; type: biochemical; conditions: Table S1, read-out: pIC50 at pH 7.5, OXA-10 (converted)
Description: Kinetic analyses were performed (at least in triplicate) using either BMG LABTECH PHERAstar or CLARIOstar plate readers. Unless stated otherwise, reactions were in 50 mM phosphate buffer, pH 7.5, containing 0.01% (vol/vol) aqueous Triton X-100, and, in the case of OXA-10, 10 mM sodium bicarbonate. […] Nonlinear regression analysis was performed with Prism 5 (GraphPad Software).
IC50s were determined as reported ([35]). […] The apparent inhibitory constant Kiapp and the second-order rate constant kinact/K (or k2/K) were determined using reported methods ([60]). SBLs were reacted with the reporter substrate in the presence of varied inhibitor concentrations. Reactions were initiated by SBL addition and immediately monitored for 60 to 120 s (until they plateaued). […] P=Vst+(V0−VS)(1−e^−kobst)/kobs+P0.

CTX-M-14 = system: CTX-M-14; parameters: method as in earlier work; conditions: periplasmic extracts; nitrocefin; 5 min pre-incubation; ref 2 (Papp-Wallace et al., 2019); cited from earlier work
SHV-49 = conditions: periplasmic extracts; nitrocefin; 5 min pre-incubation; ref 2 (Papp-Wallace et al., 2019); cited from earlier work
CTX-M-15 = system: CTX-M-15; parameters: method as in earlier work; conditions: periplasmic extracts; nitrocefin; 5 min pre-incubation; ref 2 (Papp-Wallace et al., 2019); cited from earlier work
OXA-1 = system: OXA-1; parameters: method as in earlier work; conditions: periplasmic extracts; nitrocefin; 5 min pre-incubation; ref 2 (Papp-Wallace et al., 2019); cited from earlier work
TEM-116 = TEM-116 (Escherichia coli, UniProt P62593, A182V/V82I); assay: SPE-MS study of prolonged reaction of SBL with penam sulfones; conditions: prolonged incubation (8 h) with 100 equiv.
Description: Mass spectra were acquired in the positive ion mode using an integrated autosampler/SPE RapidFire365 system (Agilent Technologies) coupled to an Agilent 6550 Accurate Mass QTOF spectrometer. After the indicated time, 50 μL of the solution was loaded onto a C4 SPE cartridge (Agilent Technologies), then washed with buffer A (100% [vol/vol] water, 0.1% [vol/vol] formic acid), then eluted into the mass spectrometer in buffer B (15% [vol/vol] water, 85% [vol/vol] acetonitrile, 0.1% [vol/vol] formic acid). The cartridge was reequilibrated in buffer A in between samples. Data were analyzed using MassHunter Qualitative Analysis software V.7 (Agilent Technologies) using the maximum entropy deconvolution algorithm.

OXA-58 = system: OXA-58; parameters: method as in earlier work; conditions: periplasmic extracts; nitrocefin; 5 min pre-incubation; ref 2 (Papp-Wallace et al., 2019); cited from earlier work
CMY-2 = system: CMY-2; parameters: method as in earlier work; conditions: periplasmic extracts; nitrocefin; 5 min pre-incubation; ref 2 (Papp-Wallace et al., 2019); cited from earlier work
SHV (R244S) = system: SHV (R244S); parameters: method as in earlier work; conditions: periplasmic extracts; nitrocefin; 5 min pre-incubation; ref 2 (Papp-Wallace et al., 2019); cited from earlier work
KPC-3 = system: KPC-3; parameters: method as in earlier work; conditions: periplasmic extracts; nitrocefin; 5 min pre-incubation; ref 2 (Papp-Wallace et al., 2019); cited from earlier work

T1 sequence (P14489 20-266): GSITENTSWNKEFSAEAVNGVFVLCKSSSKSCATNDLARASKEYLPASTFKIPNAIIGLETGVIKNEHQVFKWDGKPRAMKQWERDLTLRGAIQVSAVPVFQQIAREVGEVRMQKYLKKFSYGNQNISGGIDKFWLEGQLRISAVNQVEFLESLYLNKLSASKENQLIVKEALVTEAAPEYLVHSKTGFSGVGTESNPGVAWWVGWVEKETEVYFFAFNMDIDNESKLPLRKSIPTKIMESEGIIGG

## C[C@]1(Cn2ccnn2)[C@H](C(=O)O)N2C(=O)C[C@H]2S1(=O)=O [tazobactam]
KPC-2
  IC50: 3700 ± 400 nM
SHV-1
  IC50: 26 ± 3 nM
TEM-30
  IC50: […]
OXA-10 [1]
  Ki: 469000 ± 80000 nM
AmpC E. cloacae
  IC50: 5100 ± 500 nM
OXA-51
  IC50: > 100000 nM
OXA-48
  IC50: 1500 ± 200 nM
TEM-26
  IC50: 23 ± 1 nM
OXA-10 [2]; with 100 mM added NaHCO3, 0 min pre-incubation
  IC50: 3890 nM
OXA-10 [2]; with 100 mM added NaHCO3, 10 min pre-incubation
  IC50: 1910 nM
OXA-10 [2]; with 100 mM added NaHCO3, 30 min pre-incubation
  IC50: 851 nM
OXA-10 [2]; with 100 mM added NaHCO3, 60 min pre-incubation
  IC50: 562 nM
OXA-10 [2]; with 100 mM added NaHCO3, 360 min pre-incubation
  IC50: 204 nM
OXA-10 [2]; without added NaHCO3, 0 min pre-incubation
  IC50: 5010 nM
OXA-10 [2]; without added NaHCO3, 10 min pre-incubation
  IC50: 1480 nM
OXA-10 [2]; without added NaHCO3, 30 min pre-incubation
  IC50: 891 nM
OXA-10 [2]; without added NaHCO3, 60 min pre-incubation
  IC50: 457 nM
OXA-10 [2]; without added NaHCO3, 360 min pre-incubation
  IC50: 234 nM
CTX-M-14
  IC50: […]
SHV-49
  IC50: 730 ± 80 nM
CTX-M-15
  IC50: 6 ± 1 nM
OXA-1
  IC50: 8600 ± 900 nM
TEM-116
  −18-Da species, TEM-116: not observed
OXA-58
  IC50: 26000 ± 3000 nM
CMY-2
  IC50: 2500 ± 300 nM
SHV (R244S)
  IC50: 390 ± 40 nM
KPC-3
  IC50: 4400 ± 500 nM
